Results: PubChem BioAssay (NCI)
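Briefly, cells in 96-well plates were exposed to five compound concentrations for 48 h, and endpoints were estimated by linear interpolation. The concentration for 50% growth inhibition is given as GI50. At the TGI there is no net growth.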

How the values were obtained:
Assay in all cases: NCI anticancer screen, dose series, 48 h
[1] = test system: SK-MEL-2 melanoma
[2] = test system: KM12 colon
[3] = test system: NCI/ADR-RES ovarian
[4] = test system: IGROV1 ovarian
[5] = test system: HOP-92 NSCLC
[6] = test system: SN12C renal
[7] = test system: HCC-2998 colon
[8] = test system: MOLT-4 leukemia
[9] = test system: SK-OV-3 ovarian
[10] = test system: ACHN renal
[11] = test system: MDA-MB-435
[12] = test system: SR leukemia
[13] = test system: SK-MEL-5 melanoma
[14] = test system: SNB-19 CNS
[15] = test system: UACC-62 melanoma
[16] = test system: NCI-H460 lung
[17] = test system: SF-539 CNS
[18] = test system: M14 melanoma
[19] = test system: CAKI-1 renal
[20] = test system: PC-3 prostate
[21] = test system: DU-145 prostate
[22] = test system: SF-268 CNS
[23] = test system: SNB-75 CNS
[24] = test system: HL-60(TB) leukemia
[25] = test system: UO-31 renal
[26] = test system: SW-620 colon
[27] = test system: SK-MEL-28 melanoma
[28] = test system: A498 renal
[29] = test system: NCI-H23 lung
[30] = test system: HCT-15 colon
[31] = test system: OVCAR-3 ovarian
[32] = test system: HOP-62 NSCLC
[33] = test system: 786-0 renal
[34] = test system: UACC-257 melanoma
[35] = test system: SF-295 CNS
[36] = test system: LOX IMVI melanoma
[37] = test system: NCI-H522 lung
[38] = test system: HS 578T breast
[39] = test system: T-47D breast
[40] = test system: NCI-H226 lung
[41] = test system: HCT-116 colon
[42] = test system: MALME-3M melanoma
[43] = test system: OVCAR-8 ovarian
[44] = test system: RXF 393 renal
[45] = test system: U251 CNS
[46] = test system: BT-549 breast
[47] = test system: EKVX NSCLC
[48] = test system: K-562 leukemia
[49] = test system: OVCAR-4 ovarian
[50] = test system: OVCAR-5 ovarian
[51] = test system: MDA-MB-231 breast
[52] = test system: COLO 205 colon
[53] = test system: TK-10 renal
[54] = test system: CCRF-CEM leukemia
[55] = test system: HT29 colon
[56] = test system: A549 NSCLC
[57] = test system: MCF7 breast
[58] = test system: RPMI-8226 leukemia

Structure (SMILES): COc1cc(C2CC(c3cccc(Nc4ccncc4)c3)=NN2c2cc(Cl)cc(Cl)c2)cc(OC)c1OC (configuration not stated)
- GI50 [1]: 2050 nM
- TGI [1]: 4.13 µM
- GI50 [2]: 1650 nM
- TGI [2]: 3.1 µM
- GI50 [3]: 1840 nM
- TGI [3]: 3.53 µM
- GI50 [4]: 1690 nM
- TGI [4]: 3.25 µM
- GI50 [5]: 1120 nM
- TGI [5]: 2440 nM
- GI50 [6]: 1660 nM
- TGI [6]: 3.14 µM
- GI50 [7]: 1560 nM
- TGI [7]: 2980 nM
- GI50 [8]: 1530 nM
- TGI [8]: 3.57 µM
- GI50 [9]: 1860 nM
- TGI [9]: 3890 nM
- GI50 [10]: 1660 nM
- TGI [10]: 3030 nM
- GI50 [11]: 1610 nM
- TGI [11]: 3.15 µM
- GI50 [12]: 1640 nM
- TGI [12]: 3720 nM
- GI50 [13]: 1800 nM
- TGI [13]: 3240 nM
- GI50 [14]: 1610 nM
- TGI [14]: 3.02 µM
- GI50 [15]: 1690 nM
- TGI [15]: 3180 nM
- GI50 [16]: 1730 nM
- TGI [16]: 3.28 µM
- GI50 [17]: 1720 nM
- TGI [17]: 3200 nM
- GI50 [18]: 1750 nM
- TGI [18]: 3.36 µM
- GI50 [19]: 1530 nM
- TGI [19]: 2910 nM
- GI50 [20]: 1570 nM
- TGI [20]: 3.14 µM
- GI50 [21]: 1680 nM
- TGI [21]: 3.08 µM
- GI50 [22]: 1610 nM
- TGI [22]: 3.21 µM
- GI50 [23]: 1310 nM
- TGI [23]: 3.06 µM
- GI50 [24]: 1530 nM
- TGI [24]: 3.65 µM
- GI50 [25]: 1440 nM
- TGI [25]: 2790 nM
- GI50 [26]: 1670 nM
- TGI [26]: 3.2 µM
- GI50 [27]: 1760 nM
- TGI [27]: 3.31 µM
- GI50 [28]: 1270 nM
- TGI [28]: 4220 nM
- GI50 [29]: 1790 nM
- TGI [29]: 3380 nM
- GI50 [30]: 1790 nM
- TGI [30]: 3.43 µM
- GI50 [31]: 1730 nM
- TGI [31]: 3.21 µM

Structure (SMILES): O=C1c2cc3c(cc2-c2c1c1cc(Cl)c(Cl)cc1c(=O)n2CCCn1ccnc1)OCO3
- GI50 [1]: 222 nM
- TGI [1]: 26.7 µM
- GI50 [32]: < 10 nM
- GI50 [2]: 24.4 nM
- TGI [2]: 37.1 µM
- GI50 [33]: < 10 nM
- TGI [33]: 11.4 µM
- GI50 [34]: 12.2 nM
- TGI [34]: 1310 nM
- GI50 [3]: < 10 nM
- TGI [3]: 11.6 µM
- GI50 [35]: < 10 nM
- TGI [35]: 13.1 nM
- GI50 [36]: < 10 nM
- TGI [36]: 18.3 nM
- GI50 [4]: 29.5 nM
- TGI [4]: > 100 µM
- GI50 [37]: < 10 nM
- TGI [37]: 835 nM
- GI50 [38]: 17.1 µM
- TGI [38]: > 100 µM
- GI50 [39]: < 10 nM
- TGI [39]: 63.6 nM
- GI50 [40]: < 10 nM
- GI50 [7]: 53.8 nM
- TGI [7]: > 100000 nM
- GI50 [41]: < 10 nM
- TGI [41]: 17.6 µM
- GI50 [42]: 23.2 nM
- TGI [42]: 17 µM
- GI50 [43]: < 10 nM
- TGI [43]: > 100 µM
- GI50 [8]: < 10 nM
- TGI [8]: 10.9 µM
- GI50 [9]: < 10 nM
- TGI [9]: 30.5 nM
- GI50 [44]: < 10 nM
- TGI [44]: 56.6 nM
- GI50 [10]: < 10 nM
- TGI [10]: 1090 nM
- GI50 [45]: < 10 nM
- TGI [45]: 11.6 µM
- GI50 [46]: 11.4 nM
- TGI [46]: 28.1 µM
- GI50 [11]: 16.2 nM
- TGI [11]: > 100 µM
- GI50 [47]: 55.3 nM
- TGI [47]: > 100 µM
- GI50 [12]: < 10 nM
- TGI [12]: 1670 nM
- GI50 [13]: < 10 nM
- TGI [13]: 40.7 nM
- GI50 [14]: < 10 nM
- TGI [14]: > 100 µM
- GI50 [15]: < 10 nM
- TGI [15]: 11.7 nM
- GI50 [16]: < 10 nM
- TGI [16]: > 100 µM
- GI50 [48]: 11.1 nM
- TGI [48]: 20.8 µM
- GI50 [49]: 49.5 nM
- TGI [49]: > 100 µM
- GI50 [17]: < 10 nM
- TGI [17]: 20.6 nM
- GI50 [18]: < 10 nM
- TGI [18]: 11.8 µM
- GI50 [50]: 23.9 nM
- TGI [50]: > 100 µM
- GI50 [51]: 99.6 nM
- TGI [51]: > 100 µM
- GI50 [19]: < 10 nM
- TGI [19]: > 100000 nM
- GI50 [52]: < 10 nM
- TGI [52]: > 100 µM
- GI50 [53]: 85 nM
- TGI [53]: > 100 µM
- GI50 [54]: < 10 nM
- TGI [54]: > 100 µM
- GI50 [20]: 17.1 nM
- TGI [20]: > 100 µM
- GI50 [21]: < 10 nM
- TGI [21]: 59.9 µM
- GI50 [22]: < 10 nM
- TGI [22]: > 100 µM
- GI50 [23]: < 10 nM
- TGI [23]: 17.1 µM
- GI50 [24]: < 10 nM
- TGI [24]: 15.9 µM
- GI50 [25]: < 10 nM
- TGI [25]: > 100000 nM
- GI50 [55]: < 10 nM
- TGI [55]: > 100 µM
- GI50 [56]: < 10 nM
- TGI [56]: > 100 µM
- GI50 [26]: < 10 nM
- TGI [26]: > 100 µM
- GI50 [27]: 66.5 nM
- TGI [27]: > 100 µM
- GI50 [28]: 10.7 nM
- TGI [28]: 63.8 nM
- GI50 [57]: < 10 nM
- TGI [57]: 12.3 µM
- GI50 [29]: < 10 nM
- TGI [29]: 232 nM
- GI50 [30]: 25.7 nM
- TGI [30]: > 100 µM
- GI50 [58]: < 10 nM
- TGI [58]: 10.4 µM
- GI50 [31]: 42.5 nM
- TGI [31]: 18.8 µM
